Values of other authors as cited in patent publication US8791093B2, “Pharmaceutical delivery systems for treatment of substance abuse and other addictions” (priority 2009, dated 2014).

Tests used:
ALDH-II = biological target: T1, ALDH-II (Homo sapiens, UniProt P00352)
T1 sequence (P00352 1-501): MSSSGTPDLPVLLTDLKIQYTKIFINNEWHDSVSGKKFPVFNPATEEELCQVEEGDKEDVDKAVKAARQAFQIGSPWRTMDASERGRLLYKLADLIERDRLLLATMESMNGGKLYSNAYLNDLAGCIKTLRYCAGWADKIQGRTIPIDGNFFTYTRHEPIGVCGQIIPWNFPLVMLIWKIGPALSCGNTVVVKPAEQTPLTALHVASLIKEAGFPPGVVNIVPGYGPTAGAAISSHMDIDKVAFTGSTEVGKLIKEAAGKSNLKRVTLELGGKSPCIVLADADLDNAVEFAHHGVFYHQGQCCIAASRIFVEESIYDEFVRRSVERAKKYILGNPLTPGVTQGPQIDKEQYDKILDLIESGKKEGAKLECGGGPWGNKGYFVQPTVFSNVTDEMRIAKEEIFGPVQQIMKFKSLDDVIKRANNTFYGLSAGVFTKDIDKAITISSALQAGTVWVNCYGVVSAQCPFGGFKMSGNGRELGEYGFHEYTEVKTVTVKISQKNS

ALDH-I = biological target: T2, ALDH-I (Homo sapiens, UniProt P05091)
T2 sequence (P05091 18-517): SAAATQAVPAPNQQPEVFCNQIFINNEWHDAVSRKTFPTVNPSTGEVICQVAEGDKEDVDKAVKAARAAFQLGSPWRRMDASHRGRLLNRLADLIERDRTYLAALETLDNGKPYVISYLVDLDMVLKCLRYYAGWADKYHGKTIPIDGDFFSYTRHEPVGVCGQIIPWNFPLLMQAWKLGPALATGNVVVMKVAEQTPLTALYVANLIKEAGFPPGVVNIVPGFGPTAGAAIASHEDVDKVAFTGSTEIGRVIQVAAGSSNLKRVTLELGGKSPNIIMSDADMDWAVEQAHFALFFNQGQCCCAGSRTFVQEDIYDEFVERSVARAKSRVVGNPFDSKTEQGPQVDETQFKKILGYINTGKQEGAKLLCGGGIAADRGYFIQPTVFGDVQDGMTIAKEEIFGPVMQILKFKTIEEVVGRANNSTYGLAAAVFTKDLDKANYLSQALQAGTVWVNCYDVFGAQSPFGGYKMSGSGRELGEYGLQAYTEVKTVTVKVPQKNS

SMILES: CCN(CC)C(=S)SSC(=S)N(CC)CC [Disulfiram, diethylcarbamothioylsulfanyl diethylaminomethanedithioate]
- inhibition of ALDH-II (ALDH-II): potent irreversible inhibitor
- inhibition of ALDH-I (ALDH-I): only slightly
